# From publication PMC8880361, “Design, Molecular Docking, Synthesis, Anticancer and Anti-Hyperglycemic Assessments of Thiazolidine-2,4-diones Bearing Sulfonylthiourea Moieties as Potent VEGFR-2 Inhibitors and PPARγ Agonists” (Pharmaceuticals, 2022)
# Assays:
# [1] = tested on: isolated pancreatic islets of rats; assay: In vitro insulin secretion assay (sandwich enzyme immunoassay); format: cell-based; settings: Pancreatic islet; isolated rat pancreatic islets; concentration for 50% of the maximum action; n = 3; read-out: EC50 Insulin Secreting Activity
# Method: Compounds 5a–c, 6a–c and 7a–c were also assessed to establish their insulin-secretion activities in vitro against isolated pancreatic islets of rats through the quantitative sandwich technique of enzyme immunoassay. Glimiperide was applied as the standard. The findings are described as the EC50 values (Table 4).
# HepG2 = assay: In vitro cytotoxicity, MTT colorimetric assay; format: cell-based, human; settings: for IC50: Homo sapiens, HepG2, MTT, mean ± S.D. of triplet separate experiments; for fold more toxic against HepG2 than normal VERO cells: ratio VERO vs HepG2
# VEGFR-2 = VEGFR-2 (Homo sapiens, UniProt P35968); assay: In vitro VEGFR-2 kinase assay (anti-phosphotyrosine antibody, Alpha Screen system); format: biochemical; settings: mean ± S.D. of triplet separate experiments
# Sequence of VEGFR-2 (P35968 20-1356): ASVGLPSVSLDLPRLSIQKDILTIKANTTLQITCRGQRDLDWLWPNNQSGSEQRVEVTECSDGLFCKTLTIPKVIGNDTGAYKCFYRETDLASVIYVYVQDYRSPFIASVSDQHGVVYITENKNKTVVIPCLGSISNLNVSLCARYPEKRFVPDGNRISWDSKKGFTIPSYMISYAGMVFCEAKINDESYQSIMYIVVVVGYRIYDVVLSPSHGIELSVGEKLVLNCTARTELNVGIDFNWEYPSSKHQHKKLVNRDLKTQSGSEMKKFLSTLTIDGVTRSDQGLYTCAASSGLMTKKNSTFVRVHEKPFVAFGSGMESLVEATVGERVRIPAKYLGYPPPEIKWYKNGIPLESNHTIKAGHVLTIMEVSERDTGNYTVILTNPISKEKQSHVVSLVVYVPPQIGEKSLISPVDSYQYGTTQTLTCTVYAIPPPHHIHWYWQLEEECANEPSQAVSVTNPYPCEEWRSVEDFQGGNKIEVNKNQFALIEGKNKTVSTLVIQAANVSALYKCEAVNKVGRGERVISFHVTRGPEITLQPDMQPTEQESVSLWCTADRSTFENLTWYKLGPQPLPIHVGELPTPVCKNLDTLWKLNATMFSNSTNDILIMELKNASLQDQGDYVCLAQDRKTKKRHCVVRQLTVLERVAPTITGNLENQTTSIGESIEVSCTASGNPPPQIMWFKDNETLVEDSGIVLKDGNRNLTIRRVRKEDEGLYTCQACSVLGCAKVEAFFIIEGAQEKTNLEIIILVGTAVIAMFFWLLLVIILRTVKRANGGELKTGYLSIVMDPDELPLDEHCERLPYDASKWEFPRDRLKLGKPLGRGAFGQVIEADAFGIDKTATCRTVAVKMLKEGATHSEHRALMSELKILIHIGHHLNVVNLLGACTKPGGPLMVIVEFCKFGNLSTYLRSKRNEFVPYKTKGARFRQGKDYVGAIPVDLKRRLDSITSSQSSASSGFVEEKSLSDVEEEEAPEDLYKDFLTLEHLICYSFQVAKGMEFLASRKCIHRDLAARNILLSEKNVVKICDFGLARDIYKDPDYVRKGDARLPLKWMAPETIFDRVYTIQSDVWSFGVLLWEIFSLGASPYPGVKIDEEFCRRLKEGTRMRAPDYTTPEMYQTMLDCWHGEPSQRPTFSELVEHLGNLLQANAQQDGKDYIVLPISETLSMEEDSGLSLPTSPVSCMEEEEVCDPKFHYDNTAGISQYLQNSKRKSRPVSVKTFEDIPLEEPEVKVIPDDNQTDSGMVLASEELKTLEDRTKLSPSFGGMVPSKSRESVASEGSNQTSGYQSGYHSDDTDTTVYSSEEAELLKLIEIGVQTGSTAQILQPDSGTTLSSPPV
# PPARγ = molecular target: T1, PPARγ (Homo sapiens, UniProt P37231); assay: In vitro PPARγ ligand binding assay (Fluorescence Polarization); settings: concentration required to displace 50% of the titrated ligand; n = 3; read-out: IC50 PPARγ Binding Affinity
# T1 sequence (P37231 1-505): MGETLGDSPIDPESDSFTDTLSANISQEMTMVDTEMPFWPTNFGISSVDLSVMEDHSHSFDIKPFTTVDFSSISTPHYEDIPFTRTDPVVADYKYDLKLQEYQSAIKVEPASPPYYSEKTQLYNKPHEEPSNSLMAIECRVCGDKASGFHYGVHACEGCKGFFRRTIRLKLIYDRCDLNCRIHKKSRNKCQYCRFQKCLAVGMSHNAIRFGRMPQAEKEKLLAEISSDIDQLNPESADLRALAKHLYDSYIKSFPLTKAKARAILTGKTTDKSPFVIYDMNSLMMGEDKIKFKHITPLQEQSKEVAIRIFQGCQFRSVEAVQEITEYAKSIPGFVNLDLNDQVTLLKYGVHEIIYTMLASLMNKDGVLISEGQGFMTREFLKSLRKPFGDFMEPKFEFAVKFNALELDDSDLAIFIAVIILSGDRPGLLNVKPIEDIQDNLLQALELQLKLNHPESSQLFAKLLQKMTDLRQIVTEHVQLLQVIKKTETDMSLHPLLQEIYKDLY
# MCF-7 = assay: In vitro cytotoxicity, MTT colorimetric assay; format: cell-based, human; settings: for IC50: Homo sapiens, MCF7, MTT, mean ± S.D. of triplet separate experiments; for fold higher toxicity in MCF-7 than in normal VERO cells: ratio VERO vs MCF-7
# HCT116 = assay: In vitro cytotoxicity, MTT colorimetric assay; format: cell-based, human; settings: for IC50: Homo sapiens, HCT-116, MTT, mean ± S.D. of triplet separate experiments; for fold more toxic in HCT-116 than in normal VERO cells: ratio VERO vs HCT-116
# VERO normal cell lines = assay: Cytotoxicity against normal cells; format: cell-based; settings: Chlorocebus sabaeus, mean ± S.D. of triplet separate experiments
# Method: The cytotoxic effects of the prepared derivatives against the malignant cell lines ranged from 5.77 to 17.65 μM. Derivatives 6a–c and 7a–c were, respectively, 3.41-, 3.83-, 6.93-, 4.99-, 5.45- and 7.74-fold times more toxic against HepG2 than normal VERO cells. Similarly, derivatives 6a-c and 7a-c were, respectively, 2.74-, 2.97-, 6.04-, 3.58-, 3.90- and 11.83-fold more toxic in HCT-116 than in normal VERO cells.
compound,measurement,setting,value
"CCC1=C(C)CN(C(=O)NCCc2ccc(S(=O)(=O)NC(=O)N[C@H]3CC[C@H](C)CC3)cc2)C1=O [Glimiperide, reference compound]",EC50,[1],0.73 µM
"O=C(CN1C(=O)CSC1=O)Nc1ccc(S(=O)(=O)NC(=S)Nc2ccccc2)cc1 [Compound 5b, 2-(2,4-Dioxothiazolidin-3-yl)-N-(4-(N-(phenylcarbamothioyl)sulfamoyl)phenyl)acetamide]",IC50,HepG2,22 ± 2 µM
same,IC50,VEGFR-2,0.44 ± 0.05 µM
same,IC50,PPARγ,0.377 µM
same,IC50,MCF-7,23.2 ± 2 µM
same,melting point,,262 to 264 °C
same,EC50,[1],1.13 µM
same,IC50,HCT116,25.7 ± 2 µM
"O=C(CN1C(=O)CSC1=O)Nc1ccc(S(=O)(=O)NC(=S)NC2CCCCC2)cc1 [Compound 5c, N-(4-(N-(Cyclohexylcarbamothioyl)sulfamoyl)phenyl)-2-(2,4-dioxothiazolidin-3-yl)acetamide]",IC50,HepG2,20.8 ± 2.6 µM
same,IC50,VEGFR-2,0.44 ± 0.05 µM
same,IC50,PPARγ,0.36 µM
same,IC50,MCF-7,24.6 ± 2.6 µM
same,melting point,,267 to 269 °C
same,EC50,[1],1 µM
same,IC50,HCT116,23.6 ± 2.6 µM
"CCNC(=S)NS(=O)(=O)c1ccc(NC(=O)CN2C(=O)SC(=Cc3ccc(C)cc3)C2=O)cc1 [Compound 7a, N-(4-(N-(Ethylcarbamothioyl)sulfamoyl)phenyl)-2-(5-(4-methylbenzylidene)-2,4-dioxothiazolidin-3-yl)acetamide]",IC50,HepG2,12.1 ± 1.5 µM
same,fold more toxic against HepG2 than normal VERO cells,HepG2,4.99 fold
same,IC50,VERO normal cell lines,60.12 ± 0.18 µM
same,IC50,VEGFR-2,0.14 ± 0.02 µM
same,IC50,PPARγ,0.32 µM
same,IC50,MCF-7,16.7 ± 1.5 µM
same,fold higher toxicity in MCF-7 than in normal VERO cells,MCF-7,3.61 fold
same,melting point,,285 to 287 °C
same,EC50,[1],0.81 µM
same,IC50,HCT116,16.8 ± 1.5 µM
same,fold more toxic in HCT-116 than in normal VERO cells,HCT116,3.58 fold
"Cc1ccc(C=C2SC(=O)N(CC(=O)Nc3ccc(S(=O)(=O)NC(=S)Nc4ccccc4)cc3)C2=O)cc1 [Compound 7b, 2-(5-(4-Methylbenzylidene)-2,4-dioxothiazolidin-3-yl)-N-(4-(N-(phenylcarbamothioyl)sulfamoyl)-phenyl)acetamide]",IC50,HepG2,9.65 ± 1.7 µM
same,fold more toxic against HepG2 than normal VERO cells,HepG2,5.45 fold
same,IC50,VERO normal cell lines,52.61 ± 0.22 µM
same,IC50,VEGFR-2,0.11 ± 0.02 µM
same,IC50,PPARγ,0.305 µM
same,IC50,MCF-7,12.9 ± 1.7 µM
same,fold higher toxicity in MCF-7 than in normal VERO cells,MCF-7,4.08 fold
same,EC50,[1],0.75 µM
same,IC50,HCT116,13.5 ± 1.6 µM
same,fold more toxic in HCT-116 than in normal VERO cells,HCT116,3.90 fold
"Cc1ccc(C=C2SC(=O)N(CC(=O)Nc3ccc(S(=O)(=O)NC(=S)NC4CCCCC4)cc3)C2=O)cc1 [Compound 7c, N-(4-(N-(Cyclohexylcarbamothioyl)sulfamoyl)phenyl)-2-(5-(4-methylbenzylidene)-2,4-dioxothiazolidin-3-yl)acetamide]",IC50,HepG2,8.82 ± 1.9 µM
same,fold more toxic against HepG2 than normal VERO cells,HepG2,7.74 fold
same,IC50,VERO normal cell lines,68.25 ± 0.21 µM
same,IC50,VEGFR-2,0.08 ± 0.02 µM
same,IC50,PPARγ,0.296 µM
same,IC50,MCF-7,7.78 ± 1.9 µM
same,fold higher toxicity in MCF-7 than in normal VERO cells,MCF-7,8.77 fold
same,EC50,[1],0.7 µM
same,IC50,HCT116,5.77 ± 1.9 µM
same,fold more toxic in HCT-116 than in normal VERO cells,HCT116,11.83 fold
"O=C(CN1C(=O)SC(=Cc2ccccc2)C1=O)Nc1ccc(S(=O)(=O)NC(=S)Nc2ccccc2)cc1 [Compound 6b, 2-(5-Benzylidene-2,4-dioxothiazolidin-3-yl)-N-(4-(N-(phenylcarbamothioyl)sulfamoyl)phenyl)-acetamide]",IC50,HepG2,10.7 ± 1.6 µM
same,fold more toxic against HepG2 than normal VERO cells,HepG2,3.83 fold
same,IC50,VERO normal cell lines,40.88 ± 0.22 µM
same,IC50,VEGFR-2,0.15 ± 0.02 µM
same,IC50,PPARγ,0.308 µM
same,IC50,MCF-7,13 ± 1.2 µM
same,fold higher toxicity in MCF-7 than in normal VERO cells,MCF-7,3.16 fold
same,melting point,,286 to 288 °C
same,EC50,[1],0.78 µM
same,IC50,HCT116,13.8 ± 1.2 µM
same,fold more toxic in HCT-116 than in normal VERO cells,HCT116,2.97 fold
"Cc1ccc(C=C2SC(=O)N(CC(=O)Nc3ccc(S(N)(=O)=O)cc3)C2=O)cc1 [Compound 4b, 2-(5-(4-Methylbenzylidene)-2,4-dioxothiazolidin-3-yl)-N-(4-sulfamoylphenyl)acetamide]",IC50,HepG2,48.6 ± 5.1 µM
same,IC50,VEGFR-2,0.89 ± 0.06 µM
same,IC50,MCF-7,62.4 ± 5.1 µM
same,melting point,,240 to 242 °C
same,IC50,HCT116,57.9 ± 5.1 µM
"COc1cccc2c1C(=O)c1c(O)c3c(c(O)c1C2=O)C[C@@](O)(C(=O)CO)C[C@@H]3O[C@H]1C[C@H](N)[C@H](O)[C@H](C)O1 [Doxorubicin, reference compound]",IC50,HepG2,7.94 ± 0.6 µM
same,IC50,MCF-7,6.75 ± 0.4 µM
"NS(=O)(=O)c1ccc(NC(=O)CN2C(=O)SC(=Cc3ccccc3)C2=O)cc1 [Compound 4a, 2-(5-Benzylidene-2,4-dioxothiazolidin-3-yl)-N-(4-sulfamoylphenyl)acetamide]",IC50,HepG2,52.9 ± 5.1 µM
same,IC50,VEGFR-2,0.92 ± 0.06 µM
same,IC50,MCF-7,55 ± 5.1 µM
same,melting point,,226 to 228 °C
same,IC50,HCT116,55.1 ± 5.1 µM
"O=C(CN1C(=O)SC(=Cc2ccccc2)C1=O)Nc1ccc(S(=O)(=O)NC(=S)NC2CCCCC2)cc1 [Compound 6c, 2-(5-Benzylidene-2,4-dioxothiazolidin-3-yl)-N-(4-(N-(cyclohexylcarbamothioyl)sulfamoyl)phenyl)-acetamide]",IC50,HepG2,8.99 ± 1.2 µM
same,fold more toxic against HepG2 than normal VERO cells,HepG2,6.93 fold
same,IC50,VERO normal cell lines,49.26 ± 0.22 µM
same,IC50,VEGFR-2,0.08 ± 0.02 µM
same,IC50,PPARγ,0.3 µM
same,IC50,MCF-7,8.15 ± 1.6 µM
same,EC50,[1],0.7 µM
same,IC50,HCT116,7.11 ± 1.7 µM
same,fold more toxic in HCT-116 than in normal VERO cells,HCT116,6.04 fold
"CCNC(=S)NS(=O)(=O)c1ccc(NC(=O)CN2C(=O)CSC2=O)cc1 [Compound 5a, 2-(2,4-Dioxothiazolidin-3-yl)-N-(4-(N-(ethylcarbamothioyl)sulfamoyl)phenyl)acetamide]",IC50,HepG2,24.5 ± 2.2 µM
same,IC50,VEGFR-2,0.46 ± 0.05 µM
same,IC50,PPARγ,0.393 µM
same,IC50,MCF-7,28.8 ± 2.2 µM
same,EC50,[1],1.2 µM
same,IC50,HCT116,40.1 ± 2.2 µM
"CCNC(=S)NS(=O)(=O)c1ccc(NC(=O)CN2C(=O)SC(=Cc3ccccc3)C2=O)cc1 [Compound 6a, 2-(5-Benzylidene-2,4-dioxothiazolidin-3-yl)-N-(4-(N-(ethylcarbamothioyl)sulfamoyl)phenyl)acetamide]",IC50,HepG2,14.2 ± 2.3 µM
same,fold more toxic against HepG2 than normal VERO cells,HepG2,3.41 fold
same,IC50,VERO normal cell lines,48.31 ± 0.22 µM
same,IC50,VEGFR-2,0.17 ± 0.02 µM
same,IC50,PPARγ,0.323 µM
same,IC50,MCF-7,16.5 ± 2.3 µM
same,fold higher toxicity in MCF-7 than in normal VERO cells,MCF-7,2.93 fold
same,melting point,,282 to 284 °C
same,EC50,[1],0.87 µM
same,IC50,HCT116,17.7 ± 2.3 µM
same,fold more toxic in HCT-116 than in normal VERO cells,HCT116,2.74 fold
"NS(=O)(=O)c1ccc(NC(=O)CN2C(=O)CSC2=O)cc1 [Compound 3, 2-(2,4-Dioxothiazolidin-3-yl)-N-(4-Sulfamoylphenyl)-Acetamide]",IC50,HepG2,58.6 ± 5.1 µM
same,IC50,VEGFR-2,0.93 ± 0.06 µM
same,IC50,MCF-7,60.2 ± 5.1 µM
same,IC50,HCT116,61.5 ± 5.1 µM
